Laboratory results taken from paper PMC13422867, “An orally available PfPKG inhibitor blocks Plasmodium’s infection of the liver” (PLOS Pathogens, 2026).

Legend:
[1] = system: P. cynomolgi schizont; assay: Schizont formation in primary simian hepatocytes, high-content imaging; format: cell-based, Plasmodium cynomolgi; settings: Plasmodium cynomolgi, Hepatocyte
Method: Liver stage antimalarial activity was evaluated using sporozoites from P. falciparum (NF54 strain) and P. cynomolgi bastianellii (B strain). P. falciparum-infected Anopheles stephensi mosquitoes were reared at WRAIR, while P. cynomolgi-infected Anopheles dirus mosquitoes were obtained from the Armed Forces Research Institute of Medical Sciences (AFRIMS), Thailand. Sporozoites were isolated by dissecting salivary glands under sterile conditions, followed by gentle mechanical disruption. Freshly isolated sporozoites were immediately used for hepatocyte infection.
Primary cryopreserved hepatocytes were selected based on host-parasite compatibility: primary simian hepatocytes (lot OQB) for P. cynomolgi and human hepatocytes (lot BGW) for P. falciparum (BioIVT Inc., Baltimore, MD, USA). Cells were thawed according to the manufacturer’s protocol and seeded into 384-well collagen-coated assay plates (Greiner Bio-One, Monroe, NC, USA) using InVitroGro CP plating medium (BioIVT). Seeding densities were optimized for uniform monolayer formation, and hepatocytes were allowed to adhere for 24–48 hours before infection. Sporozoites were added at a 1:1.1 hepatocyte-to-sporozoite ratio within 48 hours post-seeding. Automated robotic systems were used for media changes and compound additions to ensure assay consistency and minimize variability associated with manual pipetting.
Test compounds (PfPKG inhibitors) and assay drug controls (KDU-691 and tafenoquine) were solubilized in DMSO or PBS and serially diluted into 8- or 12-point, 2- or 3-fold series, achieving final assay concentrations ranging from 20 µM to 0.019 µM. Compounds were introduced using a calibrated pin tool controlled by robotic arms (V&P Scientific), ensuring a 1:1000 dilution into assay wells. Media were replenished daily with fresh drug-containing HCM. […]
Cells were fixed using 4% paraformaldehyde for 20 minutes at room temperature, followed by three PBS washes, and stored at 4°C until further processing. Parasite detection was performed using species-specific primary antibodies, with P. cynomolgi parasites labeled using a mouse monoclonal anti-Plasmodium GAPDH antibody (1.6 μg/mL, European Malaria Reagent Repository) and P. falciparum parasites detected using a rabbit polyclonal anti-PfHSP70 antibody (1:70 dilution, LS Bio, USA). […]
High-content imaging was performed using the Operetta CLS system (Revvity) and image analysis was performed with Harmony software version 4.9 (Revvity, Waltham, MA, USA). Images were acquired at 10x or 20x magnification using DAPI and TRITC fluorescence channels. Following the established protocol, parasites were classified as hypnozoites or schizonts based on fluorescence intensity (mean and maximum), morphological features (cell roundness and size), and segmentation criteria. […]

[2] = system: PfPKG; settings: cited from earlier work
[3] = system: P. falciparum K1; assay: Asexual blood stage growth inhibition, SYBR Green I, 72 h; format: cell-based; settings: Plasmodium falciparum, mean (standard error) of 3 biological replicates
Method: Asexual blood stage P. falciparum strains, including 3D7 and drug-resistant field isolates, were cultured using standard conditions in RPMI 1640 with 0.5% Albumax as described previously. EC₅₀ values were determined using a SYBR Green I fluorescence assay after 72 h of compound exposure. EC50 values were derived by nonlinear regression in GraphPad Prism version 10.

[4] = system: P. falciparum CamWT and CamC580Y; settings: ring-stage assays; cited from earlier work

For `C[C@@H]1CN(C)CC[C@@H]1c1cc(-c2ccncc2)c(-c2ccc(F)cc2)[nH]1.Cl.Cl` [RUPB-61, 4-{5-[(3S,4S)-1,3-Dimethylpiperidin-4-yl]-2-(4-fluorophenyl)-1H-pyrrol-3-yl}pyridine Dihydrochloride], the IC50 [1] is listed as 0.17 µM, the “IC50 against PfPKG variants, RUPB-60 compared with RUPB-61” value [2] is listed as “similar” and the IC50 [3] is listed as 0.042 µM. For the same compound, the “IC50 against DHA-sensitive CamWT compared with DHA-resistant CamC580Y” value [4] was “similar”.
